This is an account of results in patent publication US20110312934A1, “2-ALKYL-6-CYCLOAMINO-3-(PYRIDIN-4-YL)IMIDAZO[1,2-B]-PYRIDAZINE DERIVATIVES, PREPARATION THEREOF, AND THERAPEUTIC APPLICATION THEREOF” (SANOFI-AVENTIS, priority 2008, published 2011).

One data set has as its target T1, human CK1 delta (Homo sapiens, UniProt P48730).
T1 construct: purchased Invitrogen Corporation PV3665
Kind of data set: FRET Z'Lyte kinase assay, CK1 delta. Type of data set: biochemical. The conditions noted are these: peptide substrate SER/THR 11 2 μM, ATP 4 times the KM, read-out: CK1 delta Cl50. The source says:
The capacity of the compounds of the invention to inhibit the phosphorylation of casein by casein kinase 1 epsilon and delta may be evaluated using a FRET (Fluorescence Resonance Energy Transfer) fluorescence test with the aid of the Z'Lyte™ kinase assay Kit (reference PV3670; Invitrogen Corporation™) according to the manufacturer's instructions.
The casein kinases 1 used are obtained from Invitrogen Corporation (human CK1 epsilon PV3500 and human CK1 delta PV3665).
A peptide substrate, labelled at both ends with a fluorophore donor group (coumarin) and a fluorophore acceptor group (fluorescein), constituting a FRET system is phosphorylated in the presence of ATP by casein kinase 1 epsilon or delta in the presence of increasing concentrations of compounds of the invention.
The mixture is treated with a site-specific protease that specifically cleaves the peptide substrate to form two fluorescent fragments having a large fluorescence emission ratio.
The fluorescence observed is thus related to the capacity of the products of the invention to inhibit the phosphorylation of the peptide substrate by casein kinase 1 epsilon or casein kinase 1 delta. […]
The emitted fluorescence is measured at wavelengths of 445 and 520 nm (excitation at 400 nm).

Data set [1] has as its system Mper1-luc Rat-1 (P2C4) fibroblasts. Kind of data set: Circadian cell assay (mPer1 luciferase reporter, period prolongation). The conditions noted are these: effective concentration that induced a 1-hour prolongation of the circadian period, interpolated from hyperbolic curve. Type of data set: cell-based. The protocol:
Mper1-luc Rat-1 (P2C4) fibroblast cultures were prepared by dividing the cultures every 3-4 days (approximately 10-20% of confluence) on 150 cm^2 degassed polystyrene tissue culture flasks (Falcon® #35-5001) and maintained in growth medium [EMEM (Cellgro #10-0,0-CV); 10% foetal bovine serum (FBS; Gibco #16000-044); and 50 I.U./ml of penicillin-streptomycin (Cellgro #30-001-CI)] at 37° C. and under 5% CO2.
Cells obtained from Rat-1 fibroblast cultures at 30-50% of confluence as described above were co-transfected with vectors containing the selection marker for resistance to zeocin for a stable transfection and a luciferase reporter gene controlled by the mPer-1 promoter. After 24 to 48 hours, the cultures were divided on 96-well plates and maintained in growth medium supplemented with 50-100 μg/ml of zeocin (Invitrogen® #45-0430) for 10-14 days. The zeocin-resistant stable transfectants were evaluated for the expression of the reporter by adding 100 μM luciferin (Promega® #E1603®) to the growth medium and by assaying the luciferase activity on a TopCount® scintillation counter (Packard Model #C384V00). The Rat-1 cell clones expressing both zeocin resistance and lucerifase activity controlled by mPer1 were serum-shock synchronized with 50% horse serum [HS (Gibco® #16050-122)] and the activity of the circadian reporter was evaluated. The P2C4 clone of Mper1-luc Rat-1 fibroblasts was selected to test the compound.
Mper1-luc Rat-1 (P2C4) fibroblasts at 40-50% of confluence, obtained according to the protocol described above, were plated out onto 96-well opaque tissue culture plates (Perkin Elmer® #6005680). The cultures are maintained in growth medium supplemented with 100 μg/ml of zeocin (Invitrogen #45-0430) until they reach 100% of confluence (48-72 h). The cultures were then synchronized with 100 μl of synchronization medium [EMEM (Cellgro #10-0,0-CV); 100 I.U./ml of penicillin-streptomycin (Cellgro #30-001-C1); 50% HS (Gibco #16050-122)] for 2 hours at 37° C. and under 5% CO2. After synchronization, the cultures were rinsed with 100 μl of EMEM (Cellgro #10-010-CV) for 10 minutes at ambient temperature. After rinsing, the medium was replaced with 300 μl of CO2 independent medium [CO2I (Gibco #18045-088); 2 mM L-glutamine (Cellgro #25-005-C1); 100 U.I./ml of penicillin-streptomycin (Cellgro #30-001-C1); 100 μM luciferin (Promega #E 1603)]. […]
The two methods produced a virtually identical period estimation on a range of circadian periods. […] The data were analysed by adjusting a hyperbolic curve to the data expressed as change of period (y-axis) as a function of the concentration of the test compound (x-axis) in the XLfit™ software and the CE Delta (t+1 h) was interpolated from this curve.
For orientation: Reporter assays use an easily measured gene product as a stand-in for the process of interest.

Bounds are passed on as bounds.

T1 sequence (P48730 whole entry): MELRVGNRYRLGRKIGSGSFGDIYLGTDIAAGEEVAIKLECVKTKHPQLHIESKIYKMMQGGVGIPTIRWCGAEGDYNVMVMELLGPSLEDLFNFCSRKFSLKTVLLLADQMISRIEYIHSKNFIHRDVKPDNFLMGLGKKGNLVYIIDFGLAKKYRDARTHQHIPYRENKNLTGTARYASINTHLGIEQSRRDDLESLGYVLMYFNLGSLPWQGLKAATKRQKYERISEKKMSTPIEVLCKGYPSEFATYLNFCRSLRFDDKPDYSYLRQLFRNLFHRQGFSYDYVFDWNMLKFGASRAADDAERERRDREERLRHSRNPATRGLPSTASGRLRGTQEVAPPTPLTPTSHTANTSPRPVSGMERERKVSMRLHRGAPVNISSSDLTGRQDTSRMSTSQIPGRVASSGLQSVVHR

As for `Cc1nc2ccc(N3CCNCC3)nn2c1-c1ccncc1` [Compound 1, 2-Methyl-6-piperazin-1-yl-3-pyridin-4-yl-imidazo[1,2-b]pyridazine], the melting point was 166 to 168 °C. Also, the IC50 at human CK1 delta was below 1 nM. The “CE Delta (t + 1 h)” value in data set [1] is reported as 20 nM.

As a reminder, the melting point is the temperature of the solid-liquid transition.
